Reference: the supplement of paper PMC3937590

Experiments:
Assay in all cases: -log10 GI50 (growth inhibition 50%) (-log10(M)); higher = more potent growth inhibition
JIMT1 = tested on: JIMT1
Summary of the method: (§1)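 Breast cancer cell lines were exposed to each compound for 72 hours at nine doses in 1:5 serial dilution, in triplicate, with a luminescence read-out against a time-zero plate. A Gompertz curve was fitted to the dose-response data by nonlinear least squares. The value is minus log10 of GI50, the molar concentration giving the set level of growth inhibition. Values equal to the top dose carry a < qualifier.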

CAL851 = tested on: CAL851
Summary of the method: as §1

CAL148 = tested on: CAL148
Summary of the method: as §1

CAL120 = tested on: CAL120
Summary of the method: as §1

EFM192B = tested on: EFM192B
Summary of the method: as §1

EFM192A = tested on: EFM192A
Summary of the method: as §1

EFM192C = tested on: EFM192C
Summary of the method: as §1

EFM19 = tested on: EFM19
Summary of the method: as §1

SUM44PE = tested on: SUM44PE
Summary of the method: as §1

21PT = tested on: 21PT
Summary of the method: as §1

SMILES	-log10 GI50 (JIMT1)	-log10 GI50 (CAL851)	-log10 GI50 (CAL148)	-log10 GI50 (CAL120)	-log10 GI50 (EFM192B)	-log10 GI50 (EFM192A)	-log10 GI50 (EFM192C)	-log10 GI50 (EFM19)	-log10 GI50 (SUM44PE)	-log10 GI50 (21PT)
CC(=O)NCC(=O)N1[C@@H]2CC[C@H]1c1ccc(Nc3ncc(C(F)(F)F)c(NC4CCC4)n3)cc12	5.41	5.04	7.04	5.76	5.28	5.09	5.07	5.63	–	–
CC(=O)Nc1cccc(-n2c(=O)n(C3CC3)c(=O)c3c(Nc4ccc(I)cc4F)n(C)c(=O)c(C)c32)c1	–	–	–	–	–	–	–	–	6.91	–
CCC[C@H](N[C@H]1CCc2cc(F)cc(F)c2C1)C(=O)Nc1cn(C(C)(C)CNCC(C)(C)C)cn1	4.7	5.29	4.91	4.76	4.8	4.58	4.46	4.79	–	–
COc1ccc(-c2cc3c(C)nc(N)nc3n([C@H]3CC[C@H](OCCO)CC3)c2=O)cn1	6.46	7.4	6.35	6.05	6.73	6.92	–	7.42	–	–
Cn1ncc(Cl)c1-c1cc(C(=O)N[C@H](CN)Cc2ccc(F)c(F)c2)oc1Cl	5.74	5.12	8.06	5.13	6.63	7.53	–	7.42	–	5.03
C=CCNC1=C2C[C@@H](C)C[C@H](OC)[C@H](O)[C@@H](C)/C=C(\C)[C@H](OC(N)=O)[C@@H](OC)/C=C\C=C(/C)C(=O)NC(=CC1=O)C2=O [17-AAG]	–	–	–	–	–	–	–	–	8.84	–
CO[C@H]1C[C@@H]2CC[C@@H](C)[C@@](O)(O2)C(=O)C(=O)N2CCCC[C@H]2C(=O)O[C@H]([C@H](C)C[C@@H]2CC[C@@H](O)[C@H](OC)C2)CC(=O)[C@H](C)/C=C(\C)[C@@H](O)[C@@H](OC)C(=O)[C@H](C)C[C@H](C)/C=C/C=C/C=C/1C [Rapamycin]	–	–	–	–	–	–	–	–	9.26	–
CC[C@@]1(O)C(=O)OCc2c1cc1n(c2=O)Cc2cc3c(CN(C)C)c(O)ccc3nc2-1 [Topotecan]	–	–	–	–	–	–	–	–	6.43	–
